PubChem BioAssay AID1259407 (Chemical Carcinogenesis Research Information System (CCRIS), 2018)
Calls of active or inactive are those of the source. No rule for the calls is given here.

Tested on: CCRIS mutagenicity, Ames/micronucleus/aberration tests
Assay: CCRIS mutagenicity studies

In the case of `Nc1nc2c(ncn2[C@@H]2C=C[C@H](CO)C2)c(=O)[nH]1`, the mutagenic call (Test System: AMES SALMONELLA TYPHIMURIUM, Strain/Indicator: TA98, Metabolic Activation: HAMSTER, LIVER, S-9, AROCLOR 1254 (10%), Method: STANDARD PLATE) is reported as “inactive; negative”, the mutagenic call (Test System: AMES SALMONELLA TYPHIMURIUM, Strain/Indicator: TA98, Metabolic Activation: NONE, Method: STANDARD PLATE) is reported as “inactive; negative” and the mutagenic call (Test System: AMES SALMONELLA TYPHIMURIUM, Strain/Indicator: TA98, Metabolic Activation: RAT, LIVER, S-9, AROCLOR 1254 (10%), Method: STANDARD PLATE) is reported as “inactive; negative”. The mutagenic call (Test System: AMES SALMONELLA TYPHIMURIUM, Strain/Indicator: TA100, Metabolic Activation: HAMSTER, LIVER, S-9, AROCLOR 1254 (10%), Method: STANDARD PLATE) was “inactive; negative”, the mutagenic call (Test System: AMES SALMONELLA TYPHIMURIUM, Strain/Indicator: TA100, Metabolic Activation: NONE, Method: STANDARD PLATE) was “inactive; negative” and the mutagenic call (Test System: AMES SALMONELLA TYPHIMURIUM, Strain/Indicator: TA100, Metabolic Activation: RAT, LIVER, S-9, AROCLOR 1254 (10%), Method: STANDARD PLATE) was “inactive; negative”. For the same compound, the mutagenic call (Test System: AMES SALMONELLA TYPHIMURIUM, Strain/Indicator: TA1535, Metabolic Activation: HAMSTER, LIVER, S-9, AROCLOR 1254 (10%), Method: STANDARD PLATE) was “inactive; negative”, the mutagenic call (Test System: AMES SALMONELLA TYPHIMURIUM, Strain/Indicator: TA1535, Metabolic Activation: NONE, Method: STANDARD PLATE) was “inactive; negative” and the mutagenic call (Test System: AMES SALMONELLA TYPHIMURIUM, Strain/Indicator: TA1535, Metabolic Activation: RAT, LIVER, S-9, AROCLOR 1254 (10%), Method: STANDARD PLATE) was “inactive; negative”. The mutagenic call (Test System: AMES SALMONELLA TYPHIMURIUM, Strain/Indicator: TA1537, Metabolic Activation: HAMSTER, LIVER, S-9, AROCLOR 1254 (10%), Method: STANDARD PLATE) was “inactive; negative”, the mutagenic call (Test System: AMES SALMONELLA TYPHIMURIUM, Strain/Indicator: TA1537, Metabolic Activation: NONE, Method: STANDARD PLATE) was “inactive; negative” and the mutagenic call (Test System: AMES SALMONELLA TYPHIMURIUM, Strain/Indicator: TA1537, Metabolic Activation: RAT, LIVER, S-9, AROCLOR 1254 (10%), Method: STANDARD PLATE) was “inactive; negative”. For the same compound, the mutagenic call (Test System: AMES SALMONELLA TYPHIMURIUM, Strain/Indicator: TA1538, Metabolic Activation: HAMSTER, LIVER, S-9, AROCLOR 1254 (10%), Method: STANDARD PLATE) was “inactive; negative”, the mutagenic call (Test System: AMES SALMONELLA TYPHIMURIUM, Strain/Indicator: TA1538, Metabolic Activation: NONE, Method: STANDARD PLATE) was “inactive; negative” and the mutagenic call (Test System: AMES SALMONELLA TYPHIMURIUM, Strain/Indicator: TA1538, Metabolic Activation: RAT, LIVER, S-9, AROCLOR 1254 (10%), Method: STANDARD PLATE) was “inactive; negative”. The mutagenic call (Test System: MOUSE LYMPHOMA, Strain/Indicator: L5178Y (TK+/TK-), Metabolic Activation: NONE, Method: SUSPENSION/PLATE) was “inactive; negative. reevaluation of results: inconclusive”, the mutagenic call (Test System: MOUSE LYMPHOMA, Strain/Indicator: L5178Y (TK+/TK-), Metabolic Activation: RAT, LIVER, S-9, AROCLOR 1254, Method: SUSPENSION/PLATE) was “active; positive; reevaluation of results: positive” and the mutagenic call (Test System: Mouse lymphoma, Strain/Indicator: L5178Y (tk+/tk-), Metabolic Activation: None, Method: Suspension/plate) was “inactive; negative”. The mutagenic call (Test System: Mouse lymphoma, Strain/Indicator: L5178Y (tk+/tk-), Metabolic Activation: Rat, Liver, S-9, Aroclor 1254, Method: Suspension/plate) was “inactive; negative”.

With `CCCCO[C@@H](CC)CO` the mutagenic call (Test System: AMES SALMONELLA TYPHIMURIUM, Strain/Indicator: TA98, Metabolic Activation: NONE, Method: PREINCUBATION) was “inactive; negative”, the mutagenic call (Test System: AMES SALMONELLA TYPHIMURIUM, Strain/Indicator: TA98, Metabolic Activation: RAT LIVER S-9, PHENOBARBITAL AND BETA-NAPHTHOFLAVONE, Method: PREINCUBATION) was “inactive; negative” and the mutagenic call (Test System: AMES SALMONELLA TYPHIMURIUM, Strain/Indicator: TA100, Metabolic Activation: NONE, Method: PREINCUBATION) was “inactive; negative”. For the same compound, the mutagenic call (Test System: AMES SALMONELLA TYPHIMURIUM, Strain/Indicator: TA100, Metabolic Activation: RAT LIVER S-9, PHENOBARBITAL AND BETA-NAPHTHOFLAVONE, Method: PREINCUBATION) was “inactive; negative”, the mutagenic call (Test System: AMES SALMONELLA TYPHIMURIUM, Strain/Indicator: TA1535, Metabolic Activation: NONE, Method: PREINCUBATION) was “inactive; negative” and the mutagenic call (Test System: AMES SALMONELLA TYPHIMURIUM, Strain/Indicator: TA1535, Metabolic Activation: RAT LIVER S-9, PHENOBARBITAL AND BETA-NAPHTHOFLAVONE, Method: PREINCUBATION) was “inactive; negative”. The mutagenic call (Test System: AMES SALMONELLA TYPHIMURIUM, Strain/Indicator: TA1537, Metabolic Activation: NONE, Method: PREINCUBATION) was “inactive; negative”, the mutagenic call (Test System: AMES SALMONELLA TYPHIMURIUM, Strain/Indicator: TA1537, Metabolic Activation: RAT LIVER S-9, PHENOBARBITAL AND BETA-NAPHTHOFLAVONE, Method: PREINCUBATION) was “inactive; negative” and the mutagenic call (Test System: E.COLI, Strain/Indicator: WP2UVRA/PKM101, Metabolic Activation: NONE, Method: PREINCUBATION) was “inactive; negative”. The mutagenic call (Test System: E.COLI, Strain/Indicator: WP2UVRA/PKM101, Metabolic Activation: RAT LIVER S-9, PHENOBARBITAL AND BETA-NAPHTHOFLAVONE, Method: PREINCUBATION) was “inactive; negative”.
